According to ChEMBL document CHEMBL2429785, “Substituted Benzylspiroindolin-2-one Analogues as Positive Allosteric Modulators of the Muscarinic Acetylcholine Receptor M1” (ACS Med Chem Lett, 2013):
pEC50: −log10 of the molar value.

Experiments:
[1] = target: T1, Muscarinic acetylcholine receptor M1 (Homo sapiens, UniProt P11229); assay: Positive allosteric modulation at muscarinic acetylcholine receptor M1(unknown origin)
T1 sequence (P11229 whole entry): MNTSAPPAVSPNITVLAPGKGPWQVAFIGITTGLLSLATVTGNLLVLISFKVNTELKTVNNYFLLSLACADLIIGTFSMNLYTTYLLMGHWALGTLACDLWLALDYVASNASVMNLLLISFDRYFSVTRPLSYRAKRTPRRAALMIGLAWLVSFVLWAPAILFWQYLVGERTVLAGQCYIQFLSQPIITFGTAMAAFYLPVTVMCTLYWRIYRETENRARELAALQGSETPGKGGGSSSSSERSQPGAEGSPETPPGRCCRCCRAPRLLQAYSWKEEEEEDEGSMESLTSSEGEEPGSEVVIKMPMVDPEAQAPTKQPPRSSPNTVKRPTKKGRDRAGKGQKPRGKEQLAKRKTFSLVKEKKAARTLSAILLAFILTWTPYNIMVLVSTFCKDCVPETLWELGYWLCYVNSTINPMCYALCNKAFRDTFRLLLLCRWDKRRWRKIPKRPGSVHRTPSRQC

[2] = target: T2, Muscarinic acetylcholine receptor M1 (Homo sapiens) (UniProt P11229); assay: Positive allosteric modulation at muscarinic acetylcholine receptor M1(unknown origin) relative to control
T2 sequence (whole entry): T1 sequence (P11229 whole entry)

SMILES	pEC50 [1]	Emax [2] [%]
Cn1cc(-c2ccc(CN3C(=O)C4(OCCO4)c4ccccc43)c(F)c2)cn1	5.49	86
CN1CCC2(C1)C(=O)N(Cc1ccc(-c3cnn(C)c3)cc1F)c1ccccc12 (centres undefined)	5.42	76
